#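 Assay format: 96-well plates, 48-hour exposure. GI50: concentration for 50% inhibition of growth. At the TGI there is no net growth.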
# What was measured:
# Test in all cases: NCI tumour cell line growth inhibition, 48 h
# MALME-3M melanoma = system: MALME-3M melanoma
# SK-OV-3 ovarian = system: SK-OV-3 ovarian
# RPMI-8226 leukemia = system: RPMI-8226 leukemia
# SF-268 CNS = system: SF-268 CNS
# A549 NSCLC = system: A549 NSCLC
# K-562 leukemia = system: K-562 leukemia
# MDA-MB-435 = system: MDA-MB-435
# PC-3 prostate = system: PC-3 prostate
# DU-145 prostate = system: DU-145 prostate
# T-47D breast = system: T-47D breast
Structure (SMILES),TGI (MALME-3M melanoma),TGI (SK-OV-3 ovarian),TGI (RPMI-8226 leukemia),TGI (SF-268 CNS),TGI (A549 NSCLC),TGI (K-562 leukemia),TGI (MDA-MB-435),TGI (PC-3 prostate),TGI (DU-145 prostate),GI50 (MALME-3M melanoma),GI50 (T-47D breast),TGI (T-47D breast),GI50 (MDA-MB-435),GI50 (RPMI-8226 leukemia),GI50 (SF-268 CNS),GI50 (A549 NSCLC),GI50 (PC-3 prostate),GI50 (DU-145 prostate),GI50 (K-562 leukemia),GI50 (SK-OV-3 ovarian)
NC1=NS(=O)(=O)Nc2nc(-c3ccccc3)[nH]c21,> 100 µM,> 100 µM,> 100 µM,> 100 µM,> 100 µM,> 100 µM,–,–,–,–,–,–,–,–,–,–,–,–,–,–
Nc1[nH]nc2nc3ccccc3nc12,> 100 µM,> 100 µM,> 100 µM,> 100 µM,> 100 µM,> 100 µM,> 100 µM,> 100 µM,> 100 µM,–,–,–,–,–,–,–,–,–,–,–
O=C(N/N=C\c1ccc(N(CCCl)CCCl)cc1[N+](=O)[O-])c1cccnc1,> 100 µM,–,> 100 µM,> 100 µM,> 100 µM,> 100 µM,> 100 µM,> 100 µM,> 100 µM,> 100 µM,> 100 µM,> 100 µM,> 100 µM,> 100 µM,> 100 µM,> 100 µM,> 100 µM,> 100 µM,> 100 µM,–
Cn1cc(-c2ccc3cc(-c4ccc(CC(=O)Nc5cc(C(C)(C)C)on5)cc4)cnc3c2)cn1,–,> 100 µM,> 100 µM,14.8 µM,> 100 µM,> 100 µM,3.54 µM,20.8 µM,10.2 µM,–,2.68 µM,> 100 µM,1.43 µM,2.34 µM,1.96 µM,1.72 µM,2.4 µM,1.05 µM,1.85 µM,0.657 µM
CC(=O)Oc1c(N2CCCCC2)c(C(=O)c2ccccc2)c(O)c2ccn(N(C)C)c12,31.8 µM,65.4 µM,44.8 µM,57.5 µM,> 100 µM,> 100 µM,38.1 µM,33.7 µM,56.6 µM,–,–,–,–,–,–,–,–,–,–,–
O=c1ccn(C2OC(CO)C(O)C2F)c(=O)n1Cc1ccccc1 (stereo unspecified),> 100 µM,–,> 100 µM,> 100 µM,> 100 µM,> 100 µM,> 100 µM,> 100 µM,> 100 µM,–,–,> 100 µM,–,–,–,–,–,–,–,–
CC(=O)Oc1c2c(c3n(c1=O)CCCC3)C(=O)N(c1ccccc1)C2=O,> 100 µM,> 100 µM,–,> 100 µM,> 100 µM,> 100 µM,> 100 µM,> 100 µM,> 100 µM,–,–,> 100 µM,–,–,–,–,–,–,–,–
CC1(C)CCC(C)(C)C1C(=O)NC(O)C(=O)O (stereo unspecified),–,> 100 µM,> 100 µM,> 100 µM,> 100 µM,> 100 µM,> 100 µM,> 100 µM,> 100 µM,–,–,> 100 µM,–,–,–,–,–,–,–,–
O=C(CC1OC(O)C(Cl)=C1Cl)c1cccnc1 (stereo unspecified),> 100 µM,> 100 µM,> 60.8 µM,> 100 µM,> 100 µM,> 100 µM,–,–,–,–,–,–,–,–,–,–,–,–,–,–
CC(=O)Oc1ccc2c(c1)CC[C@@H]1C2[C@@H](O[N+](=O)[O-])C[C@@]2(C)C1CC[C@@H]2O[N+](=O)[O-] (stereo partly specified),28.8 µM,–,31 µM,29.7 µM,29.1 µM,32.6 µM,33.5 µM,22.9 µM,28.3 µM,–,–,26.8 µM,–,–,–,–,–,–,–,–
O=C(N=c1ccc2nc(=O)[nH]n(O)c-2c1)C(F)(F)F,–,> 100 µM,> 100 µM,> 100 µM,> 100 µM,> 100 µM,> 100 µM,> 100 µM,> 100 µM,–,–,> 100 µM,–,–,–,–,–,–,–,–
O=C(CCC=C(S(=O)(=O)c1ccccc1)S(=O)(=O)c1ccccc1)c1ccccc1,17.9 µM,> 100 µM,–,18.8 µM,49.6 µM,80.4 µM,24.3 µM,14.2 µM,25.4 µM,–,–,44.4 µM,–,–,–,–,–,–,–,–
CCOC(=O)C(Cc1ccc(OC(=O)OC(C)(C)C)cc1)NC(=O)OC(C)(C)C (stereo unspecified),> 100 µM,> 100 µM,–,> 100 µM,> 100 µM,> 100 µM,> 100 µM,> 100 µM,96 µM,–,–,70.7 µM,–,–,–,–,–,–,–,–
C=C1C(=O)O[C@@H]2[C@H](O)[C@@H](C)[C@@H]3C=CC(=O)[C@@]3(C)[C@@H](OC(=O)/C(C)=C/C)[C@H]12,1.49 µM,14.1 µM,0.473 µM,3.84 µM,13.4 µM,3.48 µM,–,–,–,–,–,–,–,–,–,–,–,–,–,–
Cc1cccc(N2C(=O)C3c4[nH]c5ccccc5c4C4CCC(C(C)(C)C)CC4C3C2=O)c1 (stereo unspecified),28 µM,–,25.8 µM,13.7 µM,22.3 µM,17.4 µM,29.6 µM,24.8 µM,33.4 µM,–,–,> 100 µM,–,–,–,–,–,–,–,–
N=c1c2c(=S)n(-c3ccccc3)c(=S)n(-c3ccccc3)c2nc(SCCN2CCCC2)n1-c1ccccc1,3.87 µM,25.3 µM,–,5.69 µM,8.5 µM,3.62 µM,3.82 µM,3.3 µM,3.29 µM,–,–,8.44 µM,–,–,–,–,–,–,–,–
CC(C)=CCc1[nH]c2ccccc2c1C1=C(O)C(=O)C(c2c(CC=C(C)C)[nH]c3ccccc23)=C(O)C1=O,4.5 µM,4.13 µM,–,7.11 µM,11.2 µM,6.31 µM,2.39 µM,4.72 µM,10.9 µM,–,–,25 µM,–,–,–,–,–,–,–,–
CC(C)(C)OC(=O)CN1CCNCCN(CC(=O)OC(C)(C)C)CCNCC1,–,> 100 µM,> 100 µM,–,> 100 µM,> 100 µM,> 100 µM,> 100 µM,> 100 µM,–,–,–,–,–,–,–,–,–,–,–
CCOC(=O)NC(OC)(C(F)(F)F)C(F)(F)F,> 100 µM,> 100 µM,> 100 µM,> 100 µM,> 100 µM,> 100 µM,> 100 µM,> 100 µM,> 100 µM,–,–,–,–,–,–,–,–,–,–,–
O=C1CC(c2ccccc2)=Nc2ccccc2N1,> 100 µM,> 100 µM,–,> 100 µM,> 100 µM,> 100 µM,–,–,–,–,–,–,–,–,–,–,–,–,–,–
Cn1ncc2c(Cl)ncnc21,–,> 100 µM,> 100 µM,> 100 µM,> 100 µM,> 100 µM,> 100 µM,> 100 µM,> 100 µM,–,–,> 100 µM,–,–,–,–,–,–,–,–
Cc1ccc(C2=C(C#N)C(N)OC3=C2COc2ccccc23)cc1 (stereo unspecified),82.1 µM,67.9 µM,> 100 µM,85.9 µM,> 100 µM,> 100 µM,> 100 µM,57.2 µM,69.1 µM,–,–,–,–,–,–,–,–,–,–,–
